Several values for one entry are separate records, joined by “and”; a condition that tells them apart may be missing. Identical values can stand only once.
System: 422866-222-R5-J1-PDC complex spheroid viability
Assay: Anticancer human tumor 422866-222-R5-J1-PDC patient-derived pancreatic adenocarcinoma cell line growth inhibition [POLQ]
Details: for viability, T/C: stronger effect = lower value
Protocol: Multicellular complex tumor spheroid response to Polymerase (POL) inhibitors (novobiocin, ART-558, RP6685) in combination with a variety of drugs and investigational agents in selected tumor cell lines
The POL inhibitors (novobiocin, ART-558, and RP6685) were evaluated both individually and in combination with standard of care and investigational anticancer small molecules within a complex spheroid model of solid tumors. . Complex spheroids include a stromal component modeled by human endothelial cells (HUVEC) and fibroblasts modeled by human mesenchymal stem cells (MSCs). The concentration ranges selected for each drug and investigational agent were based upon clinically achievable concentrations if the clinical Cmax of the agent was known.
Compounds. The drugs and investigational agents: novobiocin (NSC847541), ART-558 (NSC835418), RP-6685 (NSC848927), peposertib (NSC802822), ceralasertib (NSC780249), elimusertib (NSC800525), camonsertib (NSC841442), AZD-1390 (NSC803789), olaparib (NSC753686), talazoparib (NSC767125), rucaparib (NSC756644), sotorasib (NSC818433), MRTX-1133 (NSC836407), SN-38 (NSC673596), topotecan (NSC609699), epotoside (NSC141540), doxorubicin (NSC123127), gemcitabine (NSC613327), 5-fluorouracil (NSC19893), paclitaxel (NSC125973), vemurafenib (NSC761431), MSA-2 (NSC828583), SN-011 (NSC837082), adavosertib (NSC754352), prexasertib (NSC758257), carboplatin (NSC241240) and oxaliplatin (NSC266046), were obtained from the National Cancer Institute (NCI) Developmental Therapeutics Program Chemical Repository (21). The FDA-approved anticancer drug set is available from the Developmental Therapeutics Program at https://dtp.cancer.gov/organization/dscb/obtaining/. […] The stock solutions were prepared in dimethyl sulfoxide (DMSO, Sigma-Aldrich, St. Louis, MO, cat. D2650), except for the platinum compounds which were prepared in saline (Quality Biological, Gaithersburg, MD, cat. 114-055-101), at 800-fold the tested concentration and stored at -70 degrees C prior to their use. All drugs and investigational agents were tested over a range starting from a high concentration at or near the clinical Cmax and decreasing in half-log increments. If the clinical Cmax for an agent had not been determined, the highest concentration tested was 10 microM, except for SN-38, which was tested at a high concentration of 1 microM.
Cell Culture. All cells were maintained in an incubator at 37 degrees C and 5% CO2 with 95% humidity. The PDC lines were cultured according to standard operating procedures established by the NCI PDMR (https://pdmr.cancer.gov). Table 3 of the manuscript, lists the cell lines along with the number of the three cell types plated to form the mct-spheroids and media for tumor cell growth. After thawing, all PDC lines, except 997537-175-T-J1-PDC and 415267-285-R-J2-PDC, were cultured in Matrigel-coated flasks prepared with a working solution of 1X Ham's F-12 nutrient mix, without supplementation (Thermo Fisher Scientific, cat. 11765054), 100 U/mL penicillin-streptomycin (Thermo Fisher Scientific, cat. 15140122), and 2.5% Matrigel (Corning Inc., Corning, NY, cat. 354248) for the first three passages. The two PDC lines 997537-175-T-J1-PDC and 415267-285-R-J2-PDC were cultured on uncoated flasks. The 857933-349-R-J2-PDC line was cultured in 6C/Colon 1B media containing advanced DMEM/F-12 (Thermo Fisher Scientific, cat. 12634028), 10 mM HEPES (Thermo Fisher Scientific, cat. 15630080), 1X GlutaMAX supplement (Thermo Fisher Scientific, cat. 35050061), 0.1 mg/mL primocin (InvivoGen, San Diego, CA, cat. ant-pm-2), 10% defined fetal bovine serum, heat inactivated (HyClone Laboratories Inc., Logan, UT, cat. SH30070.03HI), 50% L-WRN conditioned media (ATCC, cat. CRL-3276), 1.25 mM N-Acetyl-L-cysteine (Sigma-Aldrich, cat. A9165), 10 mM nicotinamide (Sigma-Aldrich, cat. N0636), 1X B-27 supplement (Thermo Fisher Scientific, cat. 17504044), 1X N-2 supplement (Thermo Fisher Scientific, cat. […]

[1] = compound alone, run of 12/05/2023
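Further: spheroids exposed to compounds for one week before readout.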
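Wherever viability, T/C is given: percent of DMSO vehicle wells luminescence so 100% = untreated viability.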

Row | SMILES | viability, T/C (compound 0.0316 µM) | viability, T/C (compound 0.1 µM) | viability, T/C (compound 0.316 µM) | viability, T/C (compound 1 µM) | viability, T/C (compound 3.16 µM) | viability, T/C (compound 10 µM) | IC50 (curve of compound) | viability, T/C (compound 0.00316 µM) | viability, T/C (compound 0.01 µM) | IC50 (compound alone, run of 11/27/2023) [nM] | IC50 [1] [nM] | viability, T/C (compound 0.000316 µM) | viability, T/C (compound 0.001 µM)
1 | CCc1cc2c(N3CCc4c(cc(Cn5ccnc5)cc4-c4cn(C)nc4C(F)(F)F)C3=O)ccnc2c(OC)n1 | 93.7% and 75.7% and 82.9% | 81% and 78.8% and 84.5% | 89.8% and 81.5% and 92.5% | 117% and 113% and 99.8% | 129% and 108% and 106% | 108% and 87.1% and 92.4% | > 10000 nM | – | – | – | – | – | –
2 | CNCc1ccc(-c2[nH]c3cc(F)cc4c3c2CCNC4=O)cc1 | 88% and 95% and 99.8% | 89.3% and 83.7% and 99.7% | – | 90.7% and 102% and 101% | 77.7% and 90.4% and 86.5% | 94.5% and 76.6% and 86.3% | > 10000 nM | – | – | – | – | – | –
3 | COc1cc(C2c3cc4c(cc3C(OC3OC5COC(C)OC5C(O)C3O)C3COC(=O)C23)OCO4)cc(OC)c1O (stereo not drawn) | 90.2% and 97.7% and 97.4% | 95% and 86.7% and 97.1% | 79.5% and 59.3% and 73.2% | 54.9% and 45.2% and 52.5% | 37% and 39.4% and 37.1% | 33.3% and 33.2% and 28.4% | 1340 nM and 667 nM and 1150 nM | – | – | – | – | – | –
4 | COc1cc2cc(C(=O)CCC(=O)O)sc2cc1OC | 106% and 85.3% and 94.7% | 99.5% and 89.1% and 83% | 107% and 91% and 88% | – | 98.6% and 97.3% and 98% | – | > 10000 nM | – | – | – | – | – | –
5 | COc1ccc([C@@H](O)c2cc(-c3ncnc4cc(N5CCOCC5)ccc34)c(F)cc2Cl)nn1 | 80.3% and 87.1% and 99.6% | 84.6% and 77% and 79.5% | 76.6% and 85.4% and 75.6% | 62.4% and 59% and 67.8% | 43.3% and 51.7% and 45.8% | 35.5% and 35.1% and 37.1% | 2100 nM and 2820 nM and 3020 nM | – | – | – | – | – | –
6 | COc1cccc(OCCCN)c1-c1cc(Nc2cnc(C#N)cn2)n[nH]1 | 38.3% and 35% and 28.3% | 38.7% and 31.6% and 31.1% | 34% and 37.7% and 24.6% | 35.8% and 33.7% and 48.9% | – | – | 5.56 nM and 7.54 nM and 7.07 nM | 61.5% and 71.1% and 79.5% | 37.6% and 43.8% and 38% | – | – | – | –
7 | COc1cccc2c1C(=O)c1c(O)c3c(c(O)c1C2=O)CC(O)(C(=O)CO)CC3OC1CC(N)C(O)C(C)O1 (stereo not drawn) | 70.1% and 56.7% and 69% | – | 36.8% and 26.5% and 35.3% | 34.3% and 23.3% and 26.8% | 30.2% and 28.3% and 28.6% | 33.7% and 25.8% and 38.8% | 106 nM and 68.8 nM and 221 nM | – | – | – | – | – | –
8 | Cc1cccc(N(C)C(=O)C2C(O)CCN2c2nc(C)cc(C(F)(F)F)c2C#N)c1 (stereo not drawn) | – | 93.7% [middle of 13 runs] | 94.8% [middle of 13 runs] | – | – | 99.8% [middle of 13 runs] | – | – | – | > 10000 | > 10000 | – | –
9 | Cn1ncnc1[C@H]1c2n[nH]c(=O)c3cc(F)cc(c23)N[C@@H]1c1ccc(F)cc1 | 96.2% and 89.7% and 91.1% | 82.2% and 98.5% and 82.5% | – | – | – | – | > 100 nM | 95.8% and 100% and 84.7% | 102% and 89.2% and 106% | – | – | 105% and 98.6% and 90.6% | 94.4% and 84.4% and 82.5%
10 | Nc1ccc(C#CCN(C(=O)Cc2ncc(C(F)(F)F)cc2C(F)(F)F)c2ccc(F)cc2)nn1 | 93.7% [middle of 13 runs] | 97.3% [middle of 13 runs] | – | 97.2% [middle of 13 runs] | 105% [middle of 13 runs] | 114% [middle of 13 runs] | – | – | – | – | > 10000 | – | –
11 | Nc1ccn(C2OC(CO)C(O)C2(F)F)c(=O)n1 (stereo not drawn) | 62.1% and 51.8% and 64.1% | 54.6% and 35.1% and 56.4% | 41% and 37% and 34.6% | 41.4% and 31.6% and 43% | 38.3% and 35.9% and 36.3% | 40.9% and 38.9% and 34.1% | 120 nM and < 31.6 nM and 146 nM | – | – | – | – | – | –
12 | O=C(Nc1ccc(O)c(NS(=O)(=O)c2ccc(F)cc2)c1)c1ccc(-c2ccccc2)cc1 | 110% and 86.1% and 107% | 79.5% and 94.1% and 96.3% | 78.5% and 81.6% and 79.1% | 90.2% and 93.1% and 97.9% | 90% and 107% and 97.1% | 106% and 113% and 128% | > 10000 nM | – | – | – | – | – | –
13 | O=C(c1cc(Cc2n[nH]c(=O)c3ccccc23)ccc1F)N1CCN(C(=O)C2CC2)CC1 | 98.1% and 101% and 83.2% | 97.3% and 102% and 84.5% | – | 99.5% and 102% and 91.3% | – | – | > 10000 nM | – | – | – | – | – | –
14 | O=c1[nH]cc(F)c(=O)[nH]1 | 95.8% and 101% and 92% | 103% and 93.5% and 99.9% | 107% and 97.4% and 98.9% | 85% and 101% and 80.7% | 73.7% and 83.7% and 89.8% | 74.5% and 73.4% and 72.8% | > 10000 nM | – | – | – | – | – | –
